Experimental data as given in patent US11951087B2, “Eye wash compositions and methods” (priority 2021, dated 2024).
Several values for one entry are separate records, joined by “and”; a condition that tells them apart may be missing. Equal entries are not always repeated. Entries after “also recorded” stand apart in the source; their conditions may differ. Where two headings read alike, the source gives them in different places.

What was measured:
Pseudomonas aeruginosa = type: cell-based; details: disc diffusion
[1] = test system: P. aeruginosa (ACTA 27853); type: in vivo; details: for kill of Pseudomonas aeruginosa: both reagents and dose; for dose with most significant decrease of bacteria: day two and four; for bactericidal on stripped skin wound: 48 to 96 hours
[2] = test system: P. aeruginosa (ACTA 9027); type: in vivo; details: day five; for bacterial burden: topical 50, 100, 200 mM in water, none statistically significant; for most effective dose: topical, aqueous
[3] = test system: skin stripped wounds infected with Pseudomonas aeruginosa (ATCC 27853); experiment: Histological assessment of tape-stripped, infected mouse skin wound (Example 6); details: for tissue repair as evidenced by histology: two different doses
EGF [4] = experiment: Local growth hormone levels in normal mouse skin (Example 4); type: in vivo, mice; details: 100 μM topical, normal rodent skin
Experimental: (§1) Mice were shaved but unstrapped and uninfected (normal rodent skin). The test reagents were applied topically in an aqueous solution on the unstripped site at two hours and daily on day 1, 2 and 3. Testing reagents consisted of […] and PCA formulated at one dose, 100 μM in an aqueous solution.

IGF-1 [5] = experiment: as above; type: in vivo, mice; details: 100 μM topical, normal rodent skin
Experimental: as §1

TGF-β = experiment: as above; type: in vivo, mice; details: 100 μM topical, normal rodent skin
Experimental: as §1

P. acnes = type: cell-based; details: disc diffusion
[6] = upon ingestion; cited from earlier work
eye tissues = experiment: Irritation of eye tissues
[7] = Solubility and hydrophilic-lipophile balance; type: physicochemical
EGF [8] = experiment: Growth hormone levels in stripped mouse skin by ELISA (Example 5); type: in vivo, mice; details: 25 mM, infected and treated wound, 48 hours
Experimental: (§2) Four different conditions were used: mice had back skin tape stripped and the stripped site (wound) was infected with P. aeruginosa; mice had back skin stripped and were not infected, mice had taped stripped, infected and treated with PCA, mice were tape stripped, uninfected, and treated with PCA. When used, the PCA test reagent was applied topically in an aqueous solution on the stripped site at two hours and 24 hours.
(§3) The testing reagents consisted of and PCA formulated at one dose, 25 mM, in an aqueous solution. Levels of IGF-1, TGF-β, and EGF levels in the skin tissue at 48 hours were measured by ELISA. There were two control groups: the stripped skin and the stripped skin and infected.

Candida albicans = type: cell-based; details: disc diffusion
From the text: This example describes the method for testing the antimicrobial susceptibility of anthocyanins, anthocyanidins, or metabolites and compounds thereof. The Kirby-Bauer method of disc diffusion was used for testing, following a standard set of procedures recommended by the NCCLS. In this methodology, a set of discs saturated with either testing compounds or a control was placed on inoculated agar plates. The plates were inoculated with organisms including C. difficile, P. acnes, C. prefringens, L. casei, C. albicans, E. coli, ATTC 8739 and ATCC 43895, S. aureus, S. mutans, S. pyogenes, P. aeruginosa and K. pneumonia. The control sample was amoxicillin, an antimicrobial with very effective broad-spectrum antibiotic properties. Samples included delphinidin, pelargonidin, cyanidin CI, 28% cyanindin-3-glucoside (C3G), protocatechuic acid (PCA) and 2,4,6 Trihydroxybenzaldehyde (2,4,6 THBA).
After 18, 24, or 48 hours of incubation, depending upon the microorganism, each plate was examined. The diameters of the zones of complete inhibition were measured, including the diameter of the disc. Zones were measured to the nearest millimeter, using sliding calipers. The size of the zones of inhibition was interpreted by referring to NCCLS standard. […]

IGF-1 [9] = experiment: Growth hormone levels in stripped mouse skin by ELISA (Example 5); type: in vivo; details: 25 mM; stripped and infected mice skin; 48 hours
Experimental: as §2, §3

[10] = 48 and 96 hours, topical, aqueous

Q: Which “effect on Pseudomonas aeruginosa” value (Pseudomonas aeruginosa) does the source give for `CC1(C)S[C@@H]2[C@H](NC(=O)[C@H](N)c3ccc(O)cc3)C(=O)N2[C@H]1C(=O)O` [Amoxicillin, amoxicillin, reference compound] here?
A: no effect

Q: With `OC[C@H]1O[C@@H](Oc2cc3c(O)cc(O)cc3[o+]c2-c2ccc(O)c(O)c2)[C@H](O)[C@@H](O)[C@@H]1O` [C3G, Cyanidin 3-glucoside] as the compound, how does the bacterial burden ([1]; 100 mM, 48 and 96 hours) read?
A: significantly reduced

Q: What about the bacterial burden ([1]; 200 mM, 48 and 96 hours) of the same compound?
A: significantly reduced

Q: What about the bacterial burden [1, 10] of the same compound?
A: decreased the bacterial burden

Q: What about the “kill of Pseudomonas aeruginosa” value ([1]; 48 hours) of the same compound?
A: 10,000 fold

Q: And the “dose with most significant decrease of bacteria” value [1]?
A: 100 mM and 200 mM

Q: And the “bactericidal on stripped skin wound” value ([1]; topical)?
A: bactericidal

Q: And the bacterial burden [2]?
A: decreased the bacterial burden

Q: What about the most effective dose [2] of the same compound?
A: 100 mM

Q: And the dermal layer thickness ([3]; 100 mM, 48 hours)?
A: thicker

Q: What about the hair follicles ([3]; 100 mM, 48 hours) of the same compound?
A: single and double cellular lining

Q: What about the inflammation ([3]; 100 mM, 48 hours) of the same compound?
A: inflammation in the dermis and muscular layer and below

Q: What about the surface cellularity ([3]; 100 mM, 48 hours) of the same compound?
A: multiple cellular covering

Q: What about the vascularity ([3]; 100 mM, 48 hours) of the same compound?
A: prominent

Q: And the dermal layer thickness ([3]; 200 mM, 48 hours)?
A: thickened

Q: What about the hair follicles ([3]; 200 mM, 48 hours) of the same compound?
A: single and double cellular lining

Q: What about the inflammation ([3]; 200 mM, 48 hours) of the same compound?
A: inflammation in the dermis and muscular layer

Q: What about the surface cellularity ([3]; 200 mM, 48 hours) of the same compound?
A: multiple cells thick

Q: What about the vascularity ([3]; 200 mM, 48 hours) of the same compound?
A: increased

Q: And the “tissue repair as evidenced by histology” value [3]?
A: stimulated tissue repair

Q: What about the “local level of EGF” value (EGF [4]) of the same compound?
A: decrease

Q: And the “local level of IGF-1” value (IGF-1 [5])?
A: decrease

Q: And the “local level of TGF-β” value (TGF-β)?
A: decrease

Q: What about the “bactericidal against P. acnes” value (P. acnes) of the same compound?
A: bactericidal

Q: And the “susceptibility of P. acnes” value (P. acnes)?
A: susceptible

Q: Which results are given for `O=C(O)c1ccc(O)c(O)c1` [PCA, protocatechuic acid]?
A: duration in the body [6]: 8 h; route of elimination [6]: via the urine and feces; time of peak amount [6]: 2 h; statistical significance of bacterial burden reduction ([1]; 25 mM, 48 hours): statistically significant; bacterial burden ([1]; 25 mM, both time periods (48 and 96 hours)): reduced the bacterial burden; bacterial burden [1, 10]: decreased the bacterial burden; kill of Pseudomonas aeruginosa ([1]; 48 hours): 10,000 fold; dose with most significant decrease of bacteria [1]: 25 mM; bactericidal on stripped skin wound ([1]; topical): bactericidal; irritation of eye tissues (eye tissues): non-irritating; solubility in a lens care solution [7]: soluble; bacterial burden [2]: decreased the bacterial burden; most effective dose [2]: 50 mM; EGF response level (EGF [8]): lowest; susceptibility of Candida albicans (Candida albicans): susceptible; collagen between epidermis and dermis ([3]; 25 mM, 48 hours): collagen proliferation; also recorded: collagen layer formation; dermal layer thickness ([3]; 25 mM, 48 hours): thickened; hair follicles ([3]; 25 mM, 48 hours): prominent with multiple cellular lining; inflammation ([3]; 25 mM, 48 hours): abundant inflammation; surface cellularity ([3]; 25 mM, 48 hours): abundant and multiple cell layers; vascularity ([3]; 25 mM, 48 hours): moderate vascularity; dermal layer thickness ([3]; 50 mM, 48 hours): thicker; hair follicles ([3]; 50 mM, 48 hours): double layer of cells; inflammation ([3]; 50 mM, 48 hours): increased in the dermis and below the muscle layer; surface cellularity ([3]; 50 mM, 48 hours): covered with multiple layers of cells; vascularity ([3]; 50 mM, 48 hours): increased vascularity; tissue repair as evidenced by histology [3]: stimulated tissue repair; IGF-1 production (IGF-1 [9]): optimizes the IGF-1 production; bactericidal against P. acnes (P. acnes): bactericidal; susceptibility of P. acnes (P. acnes): susceptible; effect on Pseudomonas aeruginosa (Pseudomonas aeruginosa): some effectiveness
